Test results published in doi:10.64898/2025.12.01.691523v1 (biorxiv, 2025).

Key:
AcFtnHCH = AcFtnHCH (Anopheles culicifacies, UniProt A0A182M0V3); test: biochemical
bacterioferritin (Bftn) = conditions: buffer not given in main text

AcFtnHCH, sequence (A0A182M0V3 21-216): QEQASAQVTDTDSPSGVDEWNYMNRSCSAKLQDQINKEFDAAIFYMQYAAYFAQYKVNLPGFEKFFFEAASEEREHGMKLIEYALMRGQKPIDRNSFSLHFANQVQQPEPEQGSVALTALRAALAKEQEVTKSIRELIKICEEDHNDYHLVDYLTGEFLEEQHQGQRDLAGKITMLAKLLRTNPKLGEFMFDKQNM

## C=CC1=C(C)C2=Cc3c(C=C)c(C)c4[n]3[Fe]([Cl])[n]3c(c(C)c(CCC(=O)O)c3=CC3=NC(=C4)C(C)=C3CCC(=O)O)=CC1=N2 [hemin]
AcFtnHCH
  Kd: 67.8 ± 6.5 nM
Bacterioferritin (Bftn)
  Kd: 136 ± 21.9 nM
